Laboratory results from patent publication US12209135B2, “Anti-CD45 antibodies and conjugates thereof” (priority 2019, dated 2025).
Marks after values point to notes of the source that are not given here.

Columns and labels:
AML #2 PDX = experiment: AML patient derived xenograft model AML #2 (relapsed refractory post allogeneic HSCT); type: in vivo, immune deficient mice (NSG-SGM3, or NSG); settings: Table 26; 30 mg/kg QDx5
Protocol: (§1) A panel of models were evaluated to mimic untreated and refractory disease: AML patient derived xenograft (PDX) models (from treatment naïve and relapsed post allogeneic HCT patients; all FLT-3+NPM1+), ALL cells from an immortalized cell line (REH-Luc), and T-ALL patient-derived xenograft (PDX) model (from a patient progressing post DHAP chemotherapy).
(§2) AML #1 was derived from a treatment naïve patient (J000106134) and AML #2 was derived from a heavily pre-treated relapsed refectory patient post allogenic HSCT (J000106132), The T-ALL was derived from a patient progressing post DHAP chemotherapy. The cell line-derived ALL was transduced to express firefly luciferase. Cells of each tumor type were systemically inoculated into immune deficient mice (NSG-SGM3, or NSG).
(§3) Treatment began when peripheral tumor burden of PDX (n=3-5/group), and CDX mice reached 2-16% blast in the peripheral blood or day 5 post implant for the REH-luc model (n=10/group).
(§4) In the AML patient derived xenograft (PDX) models from treatment naïve and relapsed post allogeneic […] patients, treatment began when 2-16% blasts were detected in the periphery (n=3-5 mice/group/AML PDX model). Mice were treated with a single intravenous dose of anti-human CD45-ADC (AbA-AM), isotype-ADC, or vehicle (PBS). Ara-c was administered intravenously once daily for five consecutive days.

T-ALL PDX = experiment: T-ALL patient-derived xenograft (PDX) model; type: in vivo, immune deficient mice (NSG-SGM3, or NSG); settings: for Median Survival (Days Post Implant): Table 24
Protocol: as §1, §2, §3

AML #1 PDX = experiment: AML patient derived xenograft model AML #1 (treatment naïve); type: in vivo, immune deficient mice (NSG-SGM3, or NSG); settings: Table 25; 30 mg/kg QDx5
Protocol: as §1, §2, §3, §4

REH-Luc ALL cells = experiment: REH-Luciferase ALL xenograft (CDX) model; type: in vivo, immune deficient mice (NSG-SGM3, or NSG); settings: Table 23; 3 mg/kg QWx3
Protocol: as §1, §2, §3
Bioluminescence signal was measured using the IVIS imaging system (PerkinElmer). Radiance (mean±SEM) was captured over a time course of the study. Representative bioluminescence signal pseudo colored images were captured on day 22-23 post-implantation for all treatment groups, as shown in FIG. 29C.

[1] = Quintieri et al. 2005; cited from earlier work

## Nc1ccn([C@@H]2O[C@H](CO)[C@@H](O)[C@@H]2O)c(=O)n1 [Ara-C]
AML #2 PDX
  Median Survival (Days Post Implant): 60^†‡ Days
T-ALL PDX; 30 mg/kg QDx5
  Median Survival (Days Post Implant): 77*^† Days
AML #1 PDX
  Median Survival (Days Post Implant): 97^† Days

## C[C@@H]1C[C@H]2[C@@H]3CCC4=CC(=O)C=C[C@]4(C)[C@@]3(F)[C@@H](O)C[C@]2(C)[C@@]1(O)C(=O)CO [Dexamethasone, dexamethasone]
T-ALL PDX; 5 mg/kg Q3Dx9
  Median Survival (Days Post Implant): 47*^‡ Days
T-ALL PDX; text b933, AbA-AM1 single injection 3, or 6 mg/kg on day 5, n=5 mice/group
  median survival: 47 days

## COc1cccc2c1C(=O)c1c(O)c3c(c(O)c1C2=O)C[C@@](O)(C(=O)CO)C[C@@H]3O[C@H]1C[C@H](N)[C@H](O)[C@H](C)O1 [Doxorubicin, doxorubicin]
REH-Luc ALL cells
  Median Survival (Days Post Implant): 50^† Days

## COc1cccc2c1C(=O)c1c(O)c3c(c(O)c1C2=O)C[C@@](O)(C(=O)CO)C[C@@H]3O[C@H]1CC2[C@H](O[C@@H]3[C@@H](OC)OCCN23)[C@H](C)O1 (stereo partly shown) [PNU-159682]
[1]
  cytotoxicity relative to the parent nemorubicin: greater than 3000 fold
